The source of these data is ChEMBL document CHEMBL2346623, “Deconstruction of sulfonamide inhibitors of the urotensin receptor (UT) and design and synthesis of benzylamine and benzylsulfone antagonists” (Bioorg Med Chem Lett, 2013).

pIC50: −log10 of the molar value.

The nature of data set [1]: Drug metabolism in human liver microsomes relative to total liver blood flow. In kind it is ADME, Microsome. Particulars: read-out: Drug metabolism. (Liver microsomes are vesicles of endoplasmic reticulum, rich in cytochrome P450 enzymes.)
The target of data set [2] is T1, Urotensin-2 receptor (Homo sapiens, UniProt Q9UKP6).
T1 sequence (Q9UKP6 whole entry): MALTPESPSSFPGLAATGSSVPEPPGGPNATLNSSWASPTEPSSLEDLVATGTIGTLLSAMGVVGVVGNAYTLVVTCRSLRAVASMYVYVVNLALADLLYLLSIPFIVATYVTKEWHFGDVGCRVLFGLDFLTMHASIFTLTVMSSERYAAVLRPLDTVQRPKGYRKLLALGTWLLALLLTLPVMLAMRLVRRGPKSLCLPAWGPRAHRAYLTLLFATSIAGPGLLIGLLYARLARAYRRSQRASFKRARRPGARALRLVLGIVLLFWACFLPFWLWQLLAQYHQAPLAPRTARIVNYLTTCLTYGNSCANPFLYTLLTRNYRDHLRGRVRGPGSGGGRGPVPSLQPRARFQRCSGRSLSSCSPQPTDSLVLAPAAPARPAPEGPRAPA
Kind of data set: Displacement of [125I]-U2 from human recombinant urotensin2 receptor expressed in human Chem-2 cells after 4 hrs by scintillation proximity assay. In kind it is cell-based. Background: In a radioligand displacement assay an active substance lowers the binding of a labelled ligand.

In data set [3] the target is T1, Urotensin-2 receptor. Kind of data set: Antagonist activity at recombinant human urotensin2 receptor expressed in CHO cells assessed as inhibition of urotensin2-stimulated Ca2+ mobilization after 1 hr by FLIPR assay. The class given is functional, cell-based.
The nature of data set [4]: Solubility of the compound at pH 4.5. The class given is physicochemical. The settings on record: buffer.
The target in data set [5] is T2, Urotensin-2 receptor (Mus musculus, UniProt Q8VIH9).
T2 sequence (Q8VIH9 whole entry): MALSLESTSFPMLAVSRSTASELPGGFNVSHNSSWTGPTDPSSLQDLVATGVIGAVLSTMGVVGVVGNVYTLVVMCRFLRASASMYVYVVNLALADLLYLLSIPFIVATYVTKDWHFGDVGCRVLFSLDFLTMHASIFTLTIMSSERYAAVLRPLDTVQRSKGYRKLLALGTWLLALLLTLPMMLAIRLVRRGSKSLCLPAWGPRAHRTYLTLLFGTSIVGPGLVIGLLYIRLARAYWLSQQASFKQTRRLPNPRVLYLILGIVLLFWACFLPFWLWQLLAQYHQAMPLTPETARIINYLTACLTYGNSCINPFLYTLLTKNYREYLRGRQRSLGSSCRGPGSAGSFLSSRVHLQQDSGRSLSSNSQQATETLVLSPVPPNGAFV
Put plainly: Antagonist activity at mouse urotensin2 receptor assessed as inhibition of urotensin2-stimulated Ca2+ mobilization by cell-based assay. In kind it is functional.

Data set [6] in a line: Solubility of the compound at pH 7.4. In kind it is physicochemical. The settings on record: buffer.
Data set [7] has as its target T3, Urotensin-2 receptor (Rattus norvegicus, UniProt P49684).
T3 sequence (P49684 whole entry): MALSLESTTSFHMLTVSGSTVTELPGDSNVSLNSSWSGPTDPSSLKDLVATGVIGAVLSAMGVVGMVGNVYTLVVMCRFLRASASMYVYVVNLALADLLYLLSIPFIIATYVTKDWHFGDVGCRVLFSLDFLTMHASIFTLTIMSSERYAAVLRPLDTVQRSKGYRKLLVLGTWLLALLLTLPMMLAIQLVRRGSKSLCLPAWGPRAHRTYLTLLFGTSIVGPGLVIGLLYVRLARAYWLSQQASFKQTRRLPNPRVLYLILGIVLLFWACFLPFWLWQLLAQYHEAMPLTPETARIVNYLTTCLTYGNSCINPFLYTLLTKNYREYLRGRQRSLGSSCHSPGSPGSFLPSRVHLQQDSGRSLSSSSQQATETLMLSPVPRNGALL
Put plainly: Antagonist activity at rat urotensin2 receptor assessed as inhibition of urotensin2-stimulated Ca2+ mobilization by cell-based assay. The class given is functional. (Calcium flux is commonly read through the fluorescence of an indicator in the cells.)

Data set [8] in a line: Drug metabolism in rat liver microsomes relative to total liver blood flow. The class given is ADME, Microsome. Particulars: read-out: Drug metabolism.
The target of data set [9] is T1, Urotensin-2 receptor. Put plainly: Antagonist activity at recombinant human urotensin2 receptor expressed in CHO cells assessed as inhibition of urotensin2-stimulated Ca2+ mobilization incubated 10 mins prior to urotensin2 stimulation measured after 10 mins by fluorometric analysis. In kind it is functional, cell-based.
Data set [10] addresses T1, Urotensin-2 receptor. Kind of data set: Displacement of [125I]-U2 from recombinant human urotensin2 receptor expressed in human U2OS cells after 30 mins by gamma counting analysis. The class given is cell-based.

For `COc1cc(Br)c(S(=O)(=O)Nc2ccc(Cl)c(O[C@@H]3CCN(C)C3)c2)cc1OC`, the hepatic extraction ratio in data set [1] turned out to be 0.65. Moreover, the pIC50 (usually the negative decadic logarithm of the IC50, by convention in mol/L) on Urotensin-2 receptor [2] is 7.64; at Urotensin-2 receptor [3], 7.37.
As to `COc1cc(Br)c(S(=O)(=O)Cc2ccc(Cl)c(O[C@@H]3CCN(C)C3)c2)cc1OC`, the solubility in data set [4] and in data set [6] was greater than 87 µg/mL each time. The results for the pIC50 on Urotensin-2 receptor [5] and at Urotensin-2 receptor [7] were 5.33 and 5.70, respectively.
On to `COc1cc(Br)c([S+]([O-])Cc2ccc(Cl)c(O[C@@H]3CCN(C)C3)c2)cc1OC` (stereo partly drawn), for which the hepatic extraction ratio in data set [1] amounted to 0.72. Further, the pIC50 at Urotensin-2 receptor [2] was 6.61.
In the case of `COc1cc(Br)c(SCc2ccc(Cl)c(O[C@@H]3CCN(C)C3)c2)cc1OC`, the hepatic extraction ratio in [1] is 0.76. The pIC50 at Urotensin-2 receptor [2] is 6.36.
On to `COc1cc(Br)c(CNc2ccc(Cl)c(O[C@@H]3CCN(C)C3)c2)cc1OC`, for which the hepatic extraction ratio in data set [1] was 0.28. The figures for the pIC50 on Urotensin-2 receptor [2] and on Urotensin-2 receptor [3] were 6.63 and 5.88, respectively.
For the compound `COc1cc(Br)c(CNc2ccc(Cl)c(O[C@H]3CCN(C)C3)c2)cc1OC`, the hepatic extraction ratio in [1] was found to be 0.36. Moreover, the pIC50 at Urotensin-2 receptor [2] is 5.87; on Urotensin-2 receptor [3] it was 5.84.
`COc1cc(Br)c(CNc2ccc(Cl)c(OCCN(C)C)c2)cc1OC`: the pIC50 at Urotensin-2 receptor [2] was 5.92; at Urotensin-2 receptor [3], 5.89.
For `COc1cc(Br)c(CNc2ccc(C(F)(F)F)c(O[C@H]3CCN(C)C3)c2)cc1OC`, the hepatic extraction ratio in data set [8] is less than 0.06; in [1], 0.43. Also, the solubility in data set [4] and in data set [6] was greater than 52 µg/mL in each case. In addition, the pIC50 at Urotensin-2 receptor [5] is 5.19; at Urotensin-2 receptor [2], 6.66; on Urotensin-2 receptor [3], 6.72; at Urotensin-2 receptor [7] it was 5.41.
As for `CN(C)CCOc1cc(NCc2ccccc2)ccc1Cl`, the pIC50 at Urotensin-2 receptor [2] was less than 5.00.
Consider `CN(C)CCOc1cc(NCc2ccccc2Br)ccc1Cl`, for which the pIC50 on Urotensin-2 receptor [2] is 5.46; at Urotensin-2 receptor [3], 5.22.
The matching figures for `CN1CC[C@H](Oc2cc(NCc3ccccc3Br)ccc2C(F)(F)F)C1`: 6.09 and 5.73.
On the same counts, the results for `CN(C)CCOc1cc(NCc2ccccc2C(F)(F)F)ccc1Cl` are 6.28 and 6.12.
The matching figures for `COc1cccc(CNc2ccc(C(F)(F)F)c(O[C@H]3CCN(C)C3)c2)c1`: 6.16 and 5.95.
With `CN1CC[C@H](Oc2cc(NCc3c(Br)ccc4c3OCO4)ccc2C(F)(F)F)C1`, the negative logarithm of the IC50 (pIC50) on Urotensin-2 receptor [2] is 6.21; at Urotensin-2 receptor [3], 5.85.
The matching figures for `CN1CC[C@H](Oc2cc(NCc3cc4c(cc3Br)OCO4)ccc2C(F)(F)F)C1`: 6.35 and 6.02.
On the same counts, the results for `CN1CC[C@H](Oc2cc(NCc3cccs3)ccc2C(F)(F)F)C1` are 5.57 and 5.70.
The matching figures for `COc1cc(Br)c(S(=O)(=O)Nc2ccc(C(F)(F)F)c(OCCN(C)C)c2)cc1OC`: 6.87 and 7.00.
Turning to `COc1cc(Br)c(S(=O)(=O)Nc2ccc(C(F)(F)F)c(OCCN3CCOCC3)c2)cc1OC`, the pIC50 on Urotensin-2 receptor [2] was 5.21.
Take `COc1cc(Br)c(S(=O)(=O)Nc2ccc(C(F)(F)F)c(OCCN3CCN(C)CC3)c2)cc1OC`: the pIC50 at Urotensin-2 receptor [2] was 6.08.
In the case of `COc1cc(Br)c(S(=O)(=O)Nc2ccc(C(F)(F)F)c(OC[C@H]3CCCN3C)c2)cc1OC`, the results for the pIC50 at Urotensin-2 receptor [2] and on Urotensin-2 receptor [3] were 6.10 and 6.46, respectively.
With `COc1cc(Br)c(S(=O)(=O)Nc2ccc(C(F)(F)F)c(OC[C@@H]3CCCN3C)c2)cc1OC`, on Urotensin-2 receptor [2], the pIC50 is 5.68.
Still for that read-out and setting: under `COc1cc(Br)c(S(=O)(=O)Nc2ccc(C(F)(F)F)c(F)c2)cc1OC` stands less than 5.00.
Regarding `Cc1cc(NC(=O)NCCN2CCC(O)(Cc3ccccc3)CC2)c2ccccc2n1` [PALOSURAN], the hepatic extraction ratio in data set [1] worked out at 0.53. The values for the pIC50 on Urotensin-2 receptor [9] and on Urotensin-2 receptor [10] were 7.41 and greater than 8.30, respectively.
